# Columns and labels:
# [1] = Inhibition of gp120 in HIV-1 pseudotyped with A-MLV envelop glycoprotein infected in dog Cf2Th-CD4/CCR5 cells assessed as inhibition of viral entry incubated for 30 mins prior to infection and further incubated for 48 to 72 hrs in presence of firefly D-luciferin free acid and ATP by single-round infection luciferase assay
# [2] = Inhibition of gp120 in HIV-1 AD8 infected in dog Cf2Th-CD4/CCR5 cells assessed as inhibition of viral entry incubated for 30 mins prior to infection and further incubated for 48 to 72 hrs in presence of firefly D-luciferin free acid and ATP by single-round infection luciferase assay
# [3] = Inhibition of gp120 in HIV-1 A4 infected in dog Cf2Th-CD4/CCR5 cells assessed as inhibition of viral entry incubated for 30 mins prior to infection and further incubated for 48 to 72 hrs in presence of firefly D-luciferin free acid and ATP by single-round infection luciferase assay
# [4] = Inhibition of gp120 in HIV-1 191084 infected in dog Cf2Th-CD4/CCR5 cells assessed as inhibition of viral entry incubated for 30 mins prior to infection and further incubated for 48 to 72 hrs in presence of firefly D-luciferin free acid and ATP by single-round infection luciferase assay
SMILES,IC50 [1] [µM],IC50 [2] [nM],IC50 [3] [µM],IC50 [4] [µM]
CNCc1ccc2c(c1)[C@H](NC(=O)C(=O)Nc1ccc(Cl)c(F)c1)[C@@H](CNC(=N)N)[C@@H]2CCCO,> 300,2050,,
[H]/N=C(/N)NC[C@H]1[C@H](CC[C@H](O)CO)c2cc(CNC)ccc2[C@@H]1NC(=O)C(=O)Nc1ccc(Cl)c(F)c1,> 300,910,,
CNCc1ccc2c(c1)[C@H](NC(=O)C(=O)Nc1ccc(Cl)c(F)c1)[C@@H](CNC(=N)N)[C@@H]2CC[C@H](O)CO,> 300,2220,,
[H]/N=C(/N)NC[C@H]1Cc2cc(CNC)ccc2[C@@H]1NC(=O)C(=O)Nc1ccc(Cl)c(F)c1,,,200,95.9
[H]/N=C(/N)NC[C@H]1[C@H](CC[C@@H](O)CO)c2cc(CNC)ccc2[C@@H]1NC(=O)C(=O)Nc1ccc(Cl)c(F)c1,> 300,1600,,
CNCc1ccc2c(c1)[C@H](NC(=O)C(=O)Nc1ccc(Cl)c(F)c1)[C@@H](CNC(=N)N)[C@@H]2CCC(O)CO (some centres undefined),> 300,960,,
CNCc1ccc2c(c1)[C@@H](CCCO)[C@H](CNC(=N)N)[C@H]2NC(=O)C(=O)Nc1ccc(Cl)c(F)c1,> 300,7700,,
C=CCC[C@@H]1c2ccc(CNC)cc2[C@H](NC(=O)C(=O)Nc2ccc(Cl)c(F)c2)[C@H]1CNC(=N)N,> 300,,,

# Second part, the molecule after the results:
IC50 [1] [µM],IC50 [2] [nM],IC50 [3] [µM],IC50 [4] [µM],SMILES
> 100,,,,CCCC[C@@H]1c2cc(CNC)ccc2[C@H](NC(=O)C(=O)Nc2ccc(Cl)c(F)c2)[C@H]1CNC(=N)N
> 300,7400,,,C=CCC[C@@H]1c2cc(CNC)ccc2[C@H](NC(=O)C(=O)Nc2ccc(Cl)c(F)c2)[C@H]1CNC(=N)N
> 300,3320,98.9,20.6,CNCc1ccc2c(c1)[C@@H](CCC(O)CO)[C@H](CNC(=N)N)[C@H]2NC(=O)C(=O)Nc1ccc(Cl)c(F)c1 (some centres undefined)
> 100,3350,,,CNCc1ccc2c(c1)[C@@H](CCC(=O)CO)[C@H](CNC(=N)N)[C@H]2NC(=O)C(=O)Nc1ccc(Cl)c(F)c1
